Measured values taken from paper PMC12104674 (Frontiers in Pharmacology, 2025).
Read-outs that look alike come from different tables or passages of the source.

Assays:
albumin = conditions: of loperamide available in blood; cited from earlier work
[1] = cited from earlier work; for bioavailability: oral loperamide, significant first-pass effect, ref IMODIUM package insert (2016)
CYP3A4 [2] = assay: Calculated R1 / R1,gut for reversible CYP3A4 inhibition by loperamide
[3] = test system: untreated HER2-positive metastatic breast cancer; conditions: cited from earlier work
CYP3A4 [4] = test system: CYP3A4; design: method as in Marechal et al., 2006; conditions: CYP3A4 inhibition; ref Marechal et al., 2006; cited from earlier work
[5] = design: method as in data on file; conditions: healthy volunteers, ref data on file, cited from earlier work
[6] = Safety analysis (TEAEs), Group B; format: in vivo, healthy volunteers
Procedure: (§1) As summarized in Figure 1, the participants were divided into two groups: […] On day 1, all subjects received a single oral dose of 400 mg pyrotinib after breakfast. […] Subjects were instructed to have a light meal the night before the administration of the drug and to fast for 10 h overnight. Safety assessments included adverse events (AEs), physical examinations, vital signs, 12-lead ECGs, and clinical laboratory tests (hematology, serum chemistry, and urinalysis).

[7] = Pyrotinib plasma pharmacokinetics with/without montmorillonite powder (Group A), LC-MS/MS, NCA; format: in vivo, healthy volunteers; conditions: for Tmax: median (minimum, maximum); for Vd/F: read-out: Vz/F
Procedure: (§2) On day 1, all subjects received a single oral dose of 400 mg pyrotinib after breakfast. […] Subjects in Group B received a single oral dose of 400 mg pyrotinib and 4 mg loperamide after breakfast on day 9, followed by additional doses of 2 mg loperamide at 2 h and 4 h post-administration.
(§3) Blood samples were collected at baseline (within 30 min prior to drug administration) and at 1, 2, 3, 4, 5, 6, 7, 8, 10, 12, 24, 48, 72, and 96 h following pyrotinib administration on days 1 and 9 to measure the concentration of pyrotinib in the plasma. After completion of the study on day 13, subjects underwent a final examination and were subsequently discharged. A safety follow-up was conducted between days 16 and 19.
(§4) The analysis of plasma samples for pyrotinib was based on a validated and sensitive liquid chromatography-tandem mass spectrometry (LC-MS/MS) method with high specificity. The plasma samples were stored at −70°C and analyzed within a stability period of 176 days. The calibration range for the standard curve was between 1.00 and 500 ng/mL, and the regression equation used linear fitting with a weighting factor of W = 1/X^2 (bioanalysis method validation report, data on file). In each batch of analysis, the number of quality control (QC) samples accounted for more than 5% of the unknown samples in that batch. […] Representative chromatograms of pyrotinib at the LLOQ (lower limit of quantification) and in a plasma sample can be found in the Supplementary Material.
(§5) The individual pharmacokinetic parameters of pyrotinib would be calculated using non-compartmental analysis (NCA) and summarized by groups and combination status with descriptive statistics. To estimate the difference in the least-square means between the combination treatment and pyrotinib alone, a mixed-effects model was used to analyze the natural log-transformed pharmacokinetic parameters of pyrotinib (including AUC0- ∞ , AUC0-t, and Cmax) for each group. The model included treatment as a fixed effect and subject as a random effect. Results were exponentiated to obtain geometric least-squares means, geometric mean ratios, and corresponding 90% confidence intervals (CIs) on the original scale. […] To account for a 10% dropout rate, 18 subjects were planned for each of Groups A and B, resulting in a total of 36 subjects.

[8] = Safety analysis (TEAEs), Group A; format: in vivo, healthy volunteers
Procedure: as §1

[9] = Pyrotinib plasma pharmacokinetics with/without loperamide (Group B), LC-MS/MS, NCA; format: in vivo, healthy volunteers
Procedure: as §2, §3, §4, §5

[10] = combination with montmorillonite powder/pyrotinib alone
[11] = human, plasma, oral, Group A, pyrotinib alone, 400 mg, day 1, geometric mean (geometric CV)
[12] = with montmorillonite powder 2 h after pyrotinib vs. pyrotinib alone
[13] = combination with loperamide/pyrotinib alone
[14] = with loperamide vs. pyrotinib alone

In the case of `CN(C)C(=O)C(CCN1CCC(O)(c2ccc(Cl)cc2)CC1)(c1ccccc1)c1ccccc1` [loperamide], the “fraction bound to albumin” value (albumin) is given as 95%, the maximum concentration ([1]; after 4 mg oral administration, ref Niemi et al., 2006) is given as […] and the bioavailability [1] is given as 0.3%. For the same molecule, the bioavailability ([1]; listed as Loperamide) was “about 0.3%”, the “calculated R1 for reversible inhibition” value (CYP3A4 [2]; CYP3A4) was “less than 1.0001” and the “calculated R1,gut” value (CYP3A4 [2]; based on molecular weight of 477 Dalton, guidance cut off 11) was 1,342.7. The “median PFS by antidiarrheal used in diarrhea management” value ([3]; ad hoc analysis, ref data on file) was 19.5 months and the IC50 (CYP3A4 [4]) was […].

For `CCOc1cc2ncc(C#N)c(Nc3ccc(OCc4ccccn4)c(Cl)c3)c2cc1NC(=O)/C=C/[C@H]1CCCN1C` [Pyrotinib], the “time to peak concentration” value ([5]; oral 400 mg pyrotinib) is listed as “approximately 5 h”, the elimination half-life [5] is listed as “approximately 18 h” and the incidence of hypertriglyceridemia ([6]; Group B) is listed as 22.2%. The incidence of hyperuricemia ([6]; Group B) was 11.1%, the “incidence of oral ulcer” value ([6]; Group B) was 11.1% and the incidence of rash ([6]; Group B) was 11.1%. The serious adverse events ([6]; Group B) was “No serious adverse events”, the “number of treatment-emergent adverse events (TEAEs)” value ([6]; Group B (N = 18)) was 18 and the “subjects who experienced TEAEs” value ([6]; Group B (N = 18), pyrotinib 400 mg day 1 and pyrotinib + loperamide day 9) was 12 subjects. The “incidence of each other TEAE” value ([6]; Group B, nausea, abdominal distension, PR interval prolongation on ECG, increased heart rate, increased total bile acid, headache, dizziness (each)) was 5.6%, the “progression-free survival (PFS)” value ([3]; pyrotinib combined with trastuzumab and docetaxel, ref Ma et al., 2023) was 24.3 months and the “incidence of diarrhea grade 3 or higher” value ([3]; pyrotinib group (138/297), ref Ma et al., 2023) was 46%. For the same molecule, the incidence of diarrhea ([3]; pyrotinib group (293/297), ref Ma et al., 2023) was 99%, the “hazard ratio (PFS)” value ([3]; pyrotinib vs. placebo, each with trastuzumab and docetaxel, ref Ma et al., 2023) was 0.41 and the duration of diarrhea ([3]; usually, ref Ma et al., 2023) was 2 to 3 days. For the same molecule, the CL/F ([7]; Group A, 400 mg pyrotinib then 3 g montmorillonite powder 2 h later, day 9, geometric mean (geometric CV)) was 315 L/h, the CL/F ([7]; Group A, pyrotinib alone, 400 mg, day 1, geometric mean (geometric CV)) was 213 L/h and the CL/F ([7]; Group A, pyrotinib alone, 400 mg, day 1, geometric mean (geometric CV), listed as Pyrtonib) was 213 (40.5) L/h. For the same molecule, the “geometric mean ratio (90% CI), AUC0-t” value [7, 10] was 0.669 (0.601, 0.745), the “geometric mean ratio (90% CI), AUC0-∞” value [7, 10] was 0.676 (0.610, 0.749) and the “geometric mean ratio (90% CI), Cmax” value [7, 10] was 0.733 (0.670, 0.803). It also gave a half-life ([7]; human, plasma, oral) of 978 min, an AUC(0-inf) ([7]; human, plasma, oral, 400 mg, Group A, pyrotinib alone, 400 mg, day 1, geometric mean (geometric CV), read-out: AUC0-∞) of 1880 ng·h/mL and a Tmax ([7]; human, plasma, oral, 400 mg, Group A, pyrotinib alone, 400 mg, day 1) of 5 h. The AUC(0-t) ([7]; human, plasma, oral, 400 mg, Group A, pyrotinib alone, mixed-effects model, read-out: Geometric least-square mean AUC0-t) was 1830 ng·h/mL, the AUC(0-inf) ([7]; human, plasma, oral, 400 mg, Group A, pyrotinib alone, mixed-effects model, read-out: Geometric least-square mean AUC0-∞) was 1880 ng·h/mL and the AUC(0-inf) ([7]; human, plasma, oral, Group A, 400 mg pyrotinib then 3 g montmorillonite powder 2 h later, day 9, geometric mean (geometric CV), read-out: AUC0-∞) was 1270 ng·h/mL. For the same molecule, the Tmax ([7]; human, plasma, oral, Group A, 400 mg pyrotinib then 3 g montmorillonite powder 2 h later, day 9) was 3.51 h, the decrease in Tmax ([7]; human, plasma, oral, with montmorillonite powder vs. pyrotinib alone, read-out: time to maximum concentration earlier by) was 1.5 h and the Cmax [7, 11] was 105 ng/mL. The Vd/F [7, 11] was 4580 L, the half-life ([7]; human, plasma, oral, Group A, pyrotinib alone, 400 mg, day 1, mean (SD)) was 930 min and the Vd/F ([7]; human, plasma, oral) was 7120 L. The AUC(0-t) ([7]; human, Group A, pyrotinib alone, single oral 400 mg after breakfast, day 1, plasma pyrotinib, geometric mean (geometric CV), read-out: AUC0-t) was 1840 ng·h/mL, the “reduction in exposure of pyrotinib” value ([7]; montmorillonite powder at 2-h interval) was 33% and the “decrease in AUC0-t of pyrotinib” value [7, 12] was 33.1%. The “decrease in AUC0-∞ of pyrotinib” value [7, 12] was 32.4%, the “decrease in Cmax of pyrotinib” value [7, 12] was 26.7% and the “change in t1/2 of pyrotinib” value ([7]; with montmorillonite powder vs. pyrotinib alone) was “no significant change”. For the same molecule, the incidence of hypertriglyceridemia ([8]; Group A) was 11.1%, the serious adverse events ([8]; Group A) was “No serious adverse events” and the “number of treatment-emergent adverse events (TEAEs)” value ([8]; Group A (N = 18)) was 11. The “subjects who experienced TEAEs” value ([8]; Group A (N = 18), pyrotinib 400 mg day 1 and pyrotinib + montmorillonite powder day 9) was “eight”, the “severity of TEAEs” value ([8]; Group A, all TEAEs) was “mild (Grade 1)” and the “incidence of each other TEAE” value ([8]; Group A, hypercholesterolemia, nausea, abdominal distension, ALT elevation, AST elevation, bradycardia, elevated blood bilirubin, upper respiratory tract infection, orthostatic hypotension (each)) was 5.6%. For the same molecule, the CL/F ([9]; Group B, 400 mg pyrotinib + loperamide 4+2+2 mg, day 9, geometric mean (geometric CV)) was 160 L/h, the CL/F ([9]; Group B, pyrotinib alone, 400 mg, day 1, geometric mean (geometric CV)) was 189 L/h and the CL/F ([9]; Group B, pyrotinib alone, 400 mg, day 1, geometric mean (geometric CV), listed as Pyrtonib) was 189 (26.7) L/h. For the same molecule, the “geometric mean ratio (90% CI), AUC0-t” value [9, 13] was 1.18 (1.08, 1.28), the “geometric mean ratio (90% CI), AUC0-∞” value [9, 13] was 1.19 (1.09, 1.29) and the “geometric mean ratio (90% CI), Cmax” value [9, 13] was 0.946 (0.867, 1.03). For the same molecule, the AUC(0-t) ([9]; human, oral, Group B, 400 mg pyrotinib + 4 mg loperamide, then 2 mg loperamide at 2 and 4 h, day 9, plasma pyrotinib, geometric mean (geometric CV), read-out: AUC0-t) was 2430 ng·h/mL, the AUC(0-inf) ([9]; human, plasma, oral, 400 mg, Group B, pyrotinib alone, 400 mg, day 1, geometric mean (geometric CV), read-out: AUC0-∞) was 2110 ng·h/mL and the AUC(0-t) ([9]; human, plasma, oral, 400 mg, Group B, pyrotinib alone, mixed-effects model, read-out: Geometric least-square mean AUC0-t) was 2060 ng·h/mL. The AUC(0-inf) ([9]; human, plasma, oral, 400 mg, Group B, pyrotinib alone, mixed-effects model, read-out: Geometric least-square mean AUC0-∞) was 2110 ng·h/mL, the AUC(0-inf) ([9]; human, plasma, oral, Group B, 400 mg pyrotinib + loperamide 4+2+2 mg, day 9, geometric mean (geometric CV), read-out: AUC0-∞) was 2500 ng·h/mL and the Cmax ([9]; human, plasma, oral, Group B, pyrotinib alone, 400 mg, day 1, geometric mean (geometric CV)) was 124 ng/mL. For the same molecule, the Vd/F ([9]; human, plasma, oral, Group B, pyrotinib alone, 400 mg, day 1, geometric mean (geometric CV), read-out: Vz/F) was 4520 L, the half-life ([9]; human, plasma, oral, Group B, pyrotinib alone, 400 mg, day 1, mean (SD)) was 1040 min and the Tmax ([9]; human, plasma, oral, Group B, pyrotinib alone, 400 mg, day 1, median (minimum, maximum)) was 4.98 h. For the same molecule, the AUC(0-t) ([9]; human, Group B, pyrotinib alone, single oral 400 mg after breakfast, day 1, plasma pyrotinib, geometric mean (geometric CV), read-out: AUC0-t) was 2060 ng·h/mL, the “change in median Tmax of pyrotinib” value [9, 14] was “no significant change” and the “decrease in Cmax of pyrotinib” value [9, 14] was “approximately 5.4%”. The “increase in AUC0-t of pyrotinib” value [9, 14] was “approximately 18%” and the “increase in AUC0-∞ of pyrotinib” value [9, 14] was about 19%.
